The values that follow come from patent US12558336B2, “Metabolic rescue of retinal degeneration” (The Board of Trustees of the Leland Stanford Junior …, priority 2019, dated 2026).

“Also recorded” adds a separate entry of the source.

The test system of data set [1] is Pde6α^D670G mice. The experiment in a line: Histological analysis of outer nuclear layer (ONL) thickness by number of photoreceptor cell nuclei. To be noted: vs untreated Pde6α^D670G mice, one month of age. In kind it is in vivo, mouse. Here is the method:
Histology—Mice were sacrificed and the eyes enucleated as previously described (19). Eyes were embedded in paraffin, sectioned, and stained with hematoxylin and eosin by Exaclibur Pathology, Inc. (Norman, OK), before being visualized by light microscopy (Leica DM 5000B, Leica Microsystems, Germany). Quantification of photoreceptor nuclei was conducted on several sections that contained the optic nerve, as follows: the distance between the optic nerve and the ciliary body was divided into four, approximately equal, quadrants. Three columns of nuclei (how many cell nuclei thick) were counted within each single quadrant. These counts were then used to determine the average thickness of the ONL for each individual animal at each time. Sectioning proceeded along the long axis of the segment, so that each section contained upper and lower retina as well as the posterior pole.
Gene ontology (GO) analysis was also performed in PANTHER.

Data set [2] relates to Pde6α^D670G mice. The experiment in a line: Electroretinography (ERG) of treated Pde6α^D670G arRP mice. To be noted: vs untreated Pde6α^D670G mice, one month of age. Here is the method:
Mouse lines and husbandry—C57BL/6J-Pde6α^nmf363/nmf363, with a D670G mutation, herein referred to as Pde6α^D670G, mice were obtained from the Jackson Laboratory (Bar Harbor, ME, USA). Pde6α^D670G are co-isogenic in the C57BL/6J (B6) background; therefore, age-matched B6 mice were used as experimental controls. Mice were bred and maintained at the facilities of Columbia University and Stanford University. Animals were kept on a light-dark cycle (12 hour-12 hour). Food and water were available ad libitum throughout the experiment, whether treated or untreated. Dark-raising was performed under 24 hr dark cycle following approved institutional guidelines. […] All water bottles were covered in foil to reduce light exposure and changed weekly during the duration of the experiment following approved institutional guidelines.
Electroretinography (ERG)—Mice were dark-adapted overnight, manipulations were conducted under dim red-light illumination, and recordings were made using Espion or Celeris ERG Diagnosys equipment (Diagnosys LLL, Littleton, MA, USA) as previously described. Briefly, adult B6 control mice were tested at the beginning of each session to ensure equal readouts from the electrodes for both eyes before testing the experimental mice. Pupils were dilated using topical 2.5% phenylephrine hydrochloride and 1% tropicamide (Akorn Inc., Lakeforest, IL, USA). Mice were anesthetized by intraperitoneal injection of 0.1 ml/10 g body weight of anesthesia [1 ml ketamine 100 mg/ml (Ketaset III, Fort Dodge, IA, USA) and 0.1 ml xylazine 20 mg/ml (Lloyd Laboratories, Shenandoah, IA, USA) in 8.9 ml PBS]. Body temperature was maintained at 37° C. during the procedure. Both eyes were recorded simultaneously and responses were averaged for each trial. Responses were taken from the Espion/Celeris readout in microvolts.
Statistical and bioinformatics analysis—Results were also saved in Excel as .txt format and were uploaded into the Partek Genomics Suite 6.5 software package as described previously (5-9). The data was normalized to log base 2 and compared using 1-way ANOVA analysis. All proteins with non-significant (p>0.05) changes were eliminated from the table. The significant values were mapped using the ‘cluster based on significant genes’ visualization function with the standardization option chosen. […] Differences in experimental groups were determined by the Student's t-test as appropriate, or by one-way ANOVA followed by Tukey's post-hoc multiple comparison's test. p values <0.05 were considered significant. For ERG and histological analysis of mouse eyes, differences were determined by the Student's t-test as appropriate, or by one-way ANOVA followed by Tukey's post-hoc multiple comparison's test. p values<0.05 were considered significant.

In the case of `O=C(O)CCC(=O)C(=O)O` [alpha-ketoglutarate, Alpha-ketoglutaric acid], the “thickness of the outer nuclear layer (ONL) by number of photoreceptor cell nuclei” value with Pde6α^D670G mice [1] is “significant rescue of photoreceptor cells and their inner/outer segments; also recorded: significant increase in the thickness of the outer nuclear layer (ONL)”.
As for `NC(=O)c1cccnc1` [vitamin B3, Nicotinamide], in the data set with Pde6α^D670G mice [2], the “maximum scotopic a-wave response, quantification of ERGs from a cohort of mice” value was “no significant visual rescue”; the “maximum scotopic b-wave response, quantification of ERGs from a cohort of mice” value was “no significant visual rescue”; the “rod photoreceptor cell response, quantification of ERGs from a cohort of mice” value is reported as “no significant visual rescue”. For the same compound, in the data set on Pde6α^D670G mice [2] (vitamins 2.5 g/L or alpha-ketoglutarate 10 g/L in drinking water from P0, ketogenic diet from P21), the “rod photoreceptor cell response, scotopic 0.1 dim-light rod-specific ERG (representative traces)” value is given as “increased rod photoreceptor functional response”.
